Data published in patent US9328122B2, “7-substituted Hanfangichin B derivative, and preparation method and use thereof” (HANGZHOU BENSHENG PHARMACEUTICAL CO., LTD., priority 2012, dated 2016).
In brackets after ≈: the same amount, converted by molar mass.

Key:
[1] = test system: K562/ADR (K562adr, drug-resistant chronic myeloid leukemia) cells; assay: MTT cell growth inhibition, leukemia cells; type: cell-based; settings: Homo sapiens, K562/ADR, 72 h, MTT; for IC50: read-out: IC50; for IC90: read-out: IC90
Method in brief: (§1)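 Growth inhibition is assessed by MTT after leukemia cells, plated at 6000 per well in RPMI-1640 containing 10% fetal bovine serum, are exposed for 72 hours to graded compound concentrations added the day after plating.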

[2] = test system: NB4 (acute promyelocytic leukemia) cells; assay: MTT cell growth inhibition, leukemia cells; type: cell-based; settings: Homo sapiens, NB4, 72 h, MTT; for IC50: read-out: IC50; for IC90: read-out: IC90
Method in brief: as §1

[3] = test system: Becap-37 (human breast cancer) cells; assay: MTT cell growth inhibition, solid tumor cells; type: cell-based; settings: for IC50 / IC90: Homo sapiens, Becap-37, 72 h, MTT; for IC50: read-out: IC50; for IC90: read-out: IC90
Method in brief: (§2)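 Exposure lasted 72 h, following 24 h growth of 6000 cells/well in DMEM high glucose containing 10% FBS at 37 °C in 5% CO2; endpoint was MTT-based viable cell concentration across tested compound concentrations.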

[4] = test system: Hela (human cervical cancer) cells; assay: MTT cell growth inhibition, solid tumor cells; type: cell-based; settings: Homo sapiens, Hela, 72 h, MTT; for IC50: read-out: IC50; for IC90: read-out: IC90
Method in brief: as §2

[5] = test system: U87-MG (malignant glioma) cells; assay: MTT cell growth inhibition, solid tumor cells; type: cell-based; settings: Homo sapiens, U-87 MG, U87-MG, 72 h, MTT; for IC50: read-out: IC50; for IC90: read-out: IC90
Method in brief: as §2

[6] = test system: MGC-803 (human gastric cancer) cells; assay: MTT cell growth inhibition, solid tumor cells; type: cell-based; settings: MGC-803, 72 h, MTT; for IC50: read-out: IC50; for IC90: read-out: IC90
Method in brief: as §2

[7] = test system: MG-63 (osteosarcoma) cells; assay: MTT cell growth inhibition, solid tumor cells; type: cell-based; settings: Homo sapiens, MG-63, 72 h, MTT; for IC50: read-out: IC50; for IC90: read-out: IC90
Method in brief: as §2

[8] = test system: Hep G2 (human liver cancer) cells; assay: MTT cell growth inhibition, solid tumor cells; type: cell-based; settings: for IC50 / IC90: Homo sapiens, HepG2, Hep G2, 72 h, MTT; for IC50: read-out: IC50; for IC90: read-out: IC90
Method in brief: as §2

[9] = test system: A549 (human lung cancer) cells; assay: MTT cell growth inhibition, solid tumor cells; type: cell-based; settings: Homo sapiens, A549, 72 h, MTT; for IC50: read-out: IC50; for IC90: read-out: IC90
Method in brief: as §2

[10] = test system: Hep-2 (laryngeal carcinoma) cells; assay: MTT cell growth inhibition, solid tumor cells; type: cell-based; settings: Homo sapiens, Hep-2, 72 h, MTT; for IC50: read-out: IC50; for IC90: read-out: IC90
Method in brief: as §2

[11] = test system: RKO (human colon adenocarcinoma) cells; assay: MTT cell growth inhibition, solid tumor cells; type: cell-based; settings: Homo sapiens, RKO, 72 h, MTT; for IC50: read-out: IC50; for IC90: read-out: IC90
Method in brief: as §2

[12] = test system: tumor; assay: Antitumor activity compared with fangchinoline, overall statement; type: cell-based; settings: tumor type not specified
[13] = test system: SK-OV-3 (ovarian cancer) cells; assay: MTT cell growth inhibition, solid tumor cells; type: cell-based, human; settings: Homo sapiens, SK-OV-3, 72 h, MTT; for IC50: read-out: IC50; for IC90: read-out: IC90
Method in brief: as §2

[14] = test system: PANC-1 (pancreatic cancer) cells; assay: MTT cell growth inhibition, solid tumor cells; type: cell-based, human; settings: for IC50 / IC90: Homo sapiens, PANC-1, 72 h, MTT; for IC50: read-out: IC50; for IC90: read-out: IC90
Method in brief: as §2

[15] = test system: CNE (nasopharyngeal carcinoma) cells; assay: MTT cell growth inhibition, solid tumor cells; type: cell-based, human; settings: for IC50 / IC90: Homo sapiens, CNE, 72 h, MTT; for IC50: read-out: IC50; for IC90: read-out: IC90
Method in brief: as §2

[16] = test system: CaEs-17 (esophageal cancer) cells; assay: MTT cell growth inhibition, solid tumor cells; type: cell-based, human; settings: for IC50 / IC90: Homo sapiens, CaEs17, CaEs-17, 72 h, MTT; for IC50: read-out: IC50; for IC90: read-out: IC90
Method in brief: as §2

[17] = test system: PC-3 (prostate cancer) cells; assay: MTT cell growth inhibition, solid tumor cells; type: cell-based, human; settings: Homo sapiens, PC-3, 72 h, MTT; for IC50: read-out: IC50; for IC90: read-out: IC90
Method in brief: as §2

[18] = test system: RPMI 8226 (multiple myeloma) cells; assay: MTT cell growth inhibition, multiple myeloma cells; type: cell-based, human; settings: Homo sapiens, RPMI 8226, 72 h, MTT; for IC50: read-out: IC50; for IC90: read-out: IC90
Method in brief: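 RPMI 8226 myeloma cells, 6000 per well in RPMI-1640 with 10% FBS, were dosed with fangchinoline derivatives at several concentrations the day after seeding. Incubation ran 72 h at 37° C in 5% CO2, then viable cells were measured by MTT.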

[19] = relative to fangchinoline, Table 2

Question: How did the IC50 [1] turn out when `COc1ccc2cc1Oc1ccc(cc1)C[C@H]1c3cc(c(OC)cc3CCN1C)Oc1c(OCC(O)CNCC3CC3)c(OC)cc3c1[C@H](C2)N(C)CC3` (stereo partly drawn) [BS-FC-405] was run?
Answer: Its IC50 is 0.6 µg/mL (≈ 0.815 µM).

Question: What about the IC90 [1] of the same compound?
Answer: Its IC90 is 1.73 µg/mL (≈ 2.35 µM).

Question: And the IC50 [2]?
Answer: The IC50 was 0.47 µg/mL (≈ 0.639 µM).

Question: What about the IC90 [2] of the same compound?
Answer: Its IC90 is 0.95 µg/mL (≈ 1.29 µM).

Question: What about the IC50 [3] of the same compound?
Answer: The IC50 was 0.74 µg/mL (≈ 1.01 µM).

Question: And the IC90 [3]?
Answer: Its IC90 is 1.88 µg/mL (≈ 2.55 µM).

Question: What about the “anti-Becap37 activity increase over fangchinoline” value [3, 19] of the same compound?
Answer: Its value is roughly 3 fold.

Question: What about the IC50 [4] of the same compound?
Answer: The IC50 was 1.25 µg/mL (≈ 1.7 µM).

Question: What about the IC90 [4] of the same compound?
Answer: Its IC90 is 2 µg/mL (≈ 2.72 µM).

Question: And the IC50 [5]?
Answer: The IC50 was 0.7 µg/mL (≈ 0.951 µM).

Question: And the IC90 [5]?
Answer: Its IC90 is 1.41 µg/mL (≈ 1.92 µM).

Question: And the IC50 [6]?
Answer: Its IC50 is 0.88 µg/mL (≈ 1.2 µM).

Question: What about the IC90 [6] of the same compound?
Answer: The IC90 was 3.59 µg/mL (≈ 4.88 µM).

Question: What about the IC50 [7] of the same compound?
Answer: The IC50 was 0.96 µg/mL (≈ 1.3 µM).

Question: And the IC90 [7]?
Answer: The IC90 was 1.7 µg/mL (≈ 2.31 µM).

Question: And the IC50 [8]?
Answer: Its IC50 is 0.71 µg/mL (≈ 0.965 µM).

Question: What about the IC90 [8] of the same compound?
Answer: The IC90 was 1.7 µg/mL (≈ 2.31 µM).

Question: What about the “anti-Hep G2 activity increase over fangchinoline” value [8, 19] of the same compound?
Answer: The value was roughly 3 fold.

Question: And the IC50 [9]?
Answer: The IC50 was 1.94 µg/mL (≈ 2.64 µM).

Question: And the IC90 [9]?
Answer: The IC90 was 5.89 µg/mL (≈ 8 µM).

Question: What about the IC50 [10] of the same compound?
Answer: The IC50 was 1.67 µg/mL (≈ 2.27 µM).

Question: What about the IC90 [10] of the same compound?
Answer: The IC90 was 4.81 µg/mL (≈ 6.54 µM).

Question: What about the IC50 [11] of the same compound?
Answer: Its IC50 is 0.46 µg/mL (≈ 0.625 µM).

Question: What about the IC90 [11] of the same compound?
Answer: Its IC90 is 0.92 µg/mL (≈ 1.25 µM).

Question: What about the “antitumor activity compared with that of fangchinoline” value [12] of the same compound?
Answer: The value was “significantly superior”.

Question: And the IC50 [13]?
Answer: Its IC50 is 1.54 µg/mL (≈ 2.09 µM).

Question: And the IC90 [13]?
Answer: Its IC90 is 3.5 µg/mL (≈ 4.76 µM).

Question: What about the IC50 [14] of the same compound?
Answer: Its IC50 is 1.14 µg/mL (≈ 1.55 µM).

Question: What about the IC90 [14] of the same compound?
Answer: Its IC90 is 3.34 µg/mL (≈ 4.54 µM).

Question: What about the “anti-PANC-1 activity increase over fangchinoline” value [14, 19] of the same compound?
Answer: The value was roughly 3 fold.

Question: And the IC50 [15]?
Answer: The IC50 was 0.8 µg/mL (≈ 1.09 µM).

Question: And the IC90 [15]?
Answer: The IC90 was 1.7 µg/mL (≈ 2.31 µM).

Question: What about the “anti-CNE activity increase over fangchinoline” value [15, 19] of the same compound?
Answer: The value was roughly 3 fold.

Question: And the IC50 [16]?
Answer: Its IC50 is 0.49 µg/mL (≈ 0.666 µM).

Question: What about the IC90 [16] of the same compound?
Answer: The IC90 was 1.95 µg/mL (≈ 2.65 µM).

Question: And the “anti-CaEs-17 activity increase over fangchinoline” value [16, 19]?
Answer: The value was roughly 4 fold.

Question: What about the IC50 [17] of the same compound?
Answer: Its IC50 is 2.53 µg/mL (≈ 3.44 µM).

Question: What about the IC90 [17] of the same compound?
Answer: The IC90 was 3.69 µg/mL (≈ 5.01 µM).

Question: What about the IC50 [18] of the same compound?
Answer: Its IC50 is 0.05 µg/mL (≈ 0.0679 µM).

Question: And the IC90 [18]?
Answer: The IC90 was 0.44 µg/mL (≈ 0.598 µM).

Question: What does the source list for `C=CCN(C)CC(O)COc1c(OC)cc2c3c1Oc1cc4c(cc1OC)CCN(C)[C@H]4Cc1ccc(cc1)Oc1cc(ccc1OC)C[C@@H]3N(C)CC2` (stereo partly drawn) [BS-FC-409]?
Answer: IC50 [1]: 0.16 µg/mL (≈ 0.217 µM); IC90 [1]: 1.38 µg/mL (≈ 1.88 µM); IC50 [2]: 0.59 µg/mL (≈ 0.802 µM); IC90 [2]: 1.76 µg/mL (≈ 2.39 µM); IC50 [3]: 1.44 µg/mL (≈ 1.96 µM); IC90 [3]: 4.8 µg/mL (≈ 6.52 µM); IC50 [4]: 1.05 µg/mL (≈ 1.43 µM); IC90 [4]: 3.52 µg/mL (≈ 4.78 µM); IC50 [5]: 1.07 µg/mL (≈ 1.45 µM); IC90 [5]: 2.68 µg/mL (≈ 3.64 µM); IC50 [6]: 0.94 µg/mL (≈ 1.28 µM); IC90 [6]: 16 µg/mL (≈ 21.7 µM); IC50 [7]: 1.1 µg/mL (≈ 1.49 µM); IC90 [7]: 1.99 µg/mL (≈ 2.7 µM); IC50 [8]: 1.27 µg/mL (≈ 1.73 µM); IC90 [8]: 3.24 µg/mL (≈ 4.4 µM); IC50 [9]: 2.98 µg/mL (≈ 4.05 µM); IC90 [9]: 8.43 µg/mL (≈ 11.5 µM); IC50 [10]: 1.79 µg/mL (≈ 2.43 µM); IC90 [10]: 5.54 µg/mL (≈ 7.53 µM); IC50 [11]: 0.65 µg/mL (≈ 0.883 µM); IC90 [11]: 1.27 µg/mL (≈ 1.73 µM); antitumor activity compared with that of fangchinoline [12]: significantly superior; IC50 [13]: 2.82 µg/mL (≈ 3.83 µM); IC90 [13]: 9.85 µg/mL (≈ 13.4 µM); IC50 [14]: 3.17 µg/mL (≈ 4.31 µM); IC90 [14]: 7.14 µg/mL (≈ 9.7 µM); IC50 [15]: 0.95 µg/mL (≈ 1.29 µM); IC90 [15]: 3.94 µg/mL (≈ 5.35 µM); IC50 [16]: 0.91 µg/mL (≈ 1.24 µM); IC90 [16]: 4.9 µg/mL (≈ 6.66 µM); IC50 [17]: 2.89 µg/mL (≈ 3.93 µM); IC90 [17]: 5.8 µg/mL (≈ 7.88 µM); IC50 [18]: 0.04 µg/mL (≈ 0.0544 µM); IC90 [18]: 0.5 µg/mL (≈ 0.679 µM)
